Data from patent US20120009152A1, “NITRIC OXIDE DONORS FOR TREATMENT OF DISEASE AND INJURY” (priority 2002, published 2012).

What was measured:
[1] = cited from earlier work
[2] = tested on: TuJ1-immunoreactive cells in the subventricular zone and striatum; test: TuJ1 immunostaining of immature neurons after embolic MCA occlusion; type: in vivo, rat
Protocol: Male Wistar rats weighing 320 to 380 g were used in the present study. The middle cerebral artery (MCA) was occluded by placement of an embolus at the origin of the MCA. […] Ischemic rats (n=9) were treated with the same volume of tap water as a control group. Functional tests were performed and body weight was measured before ischemia and at 4, 7, 14, 21, and 28 days after onset of MCA occlusion. All rats were killed 28 days after MCA occlusion. […] These rats were killed 1 hour after the last treatment for measurements of brain levels of cGMP. […] Reverse transcription (RT)-polymerase chain reaction (PCR) was performed to detect PDE5 in brain tissue. […] Reaction product was detected with the use of 3′3′-diaminobenzidine-tetrahydrochloride (DAB; Sigma), For ′III-tubulin (TuJ1) immunostaining, which identifies immature neurons, 12 coronal sections were incubated with the antibody against TuJ1 (1:1000) at 4° C. overnight and were then incubated with a biotinylated horse anti-mouse immunoglobulin antibody at room temperature for 30 minutes. […] BrdU-immunoreactive nuclei were counted on a computer monitor to improve visualization and in 1 focal plane to avoid oversampling. All BrdU-immunoreactive-positive nuclei were counted in both the ipsilateral and contralateral walls of the lateral ventricle of the subventricular zone and in the dentate gyrus. […]

[3] = tested on: rats subjected to embolic middle cerebral artery occlusion; test: Adhesive removal test after embolic MCA occlusion; type: in vivo, rat
Protocol: Male Wistar rats weighing 320 to 380 g were used in the present study. The middle cerebral artery (MCA) was occluded by placement of an embolus at the origin of the MCA.
Ischemic rats (n=9) were treated with the same volume of tap water as a control group. Functional tests were performed and body weight was measured before ischemia and at 4, 7, 14, 21, and 28 days after onset of MCA occlusion. All rats were killed 28 days after MCA occlusion. […] These rats were killed 1 hour after the last treatment for measurements of brain levels of cGMP. […] Experiments were also performed to examine brain PDE5, nonischemic rats and ischemic rats were killed at 2, 4, 24, 48, and 168 hours after the onset of ischemia (n=3 for each time point). Reverse transcription (RT)-polymerase chain reaction (PCR) was performed to detect PDE5 in brain tissue.
An adhesive removal test was used to measure somatosensory deficits and was performed before MCA occlusion and at 4, 7, 14, 21 and 28 days after MCA occlusion.

[4] = tested on: brain-derived endothelial cells; test: Endothelial tube formation, total tube length; type: cell-based; details: vs control medium DMEM 1.4 (0.1); p<0.01
Source text: The enhance induction of angiogenesis is also evident from in vitro studies of tubule formation in brain derived endothelial cells. […] The endothelial cells formed a network of capillary-like structures with numerous intercellular contacts.

[5] = tested on: rats subjected to middle cerebral artery occlusion (MCAo); test: Neurologic Severity Scale (NSS) after MCAo, combination study; type: in vivo, rat; details: treatment 1 day after stroke; NN 0.4 mg/kg IP, hMSCs 1×10^6 cells iv; vs control (PBS)
Protocol: Male Wistar rats (n=32) were subjected to middle cerebral artery occlusion (MCAo) and were randomized with 8 rats in four treatment groups, with treatment initiated 1 day after stroke. Groups included: 1) phosphate buffered saline (PBS); 2) subtherapeutic DETA-NONOate (NN) at a dose of 0.4 mg/kg (IP); 3) subtherapeutic hMSCs (1×10^6 cells-iv); and 4) combination subtherapeutic NN and hMSCs. Functional outcome measurements consisted of a Neurologic Severity Scale (18 point scale) (NSS) and the Adhesive Removal Test performed prior to stroke, immediately before treatment and at 7 and 14 days after treatment. […] However, there was an overall hMSC effect on NSS at 14 days.

[6] = tested on: BrdU immunoreactive cells in dentate gyrus, SVZ and OB; test: Cell proliferation (BrdU) in non-ischemic young adult rats; type: in vivo, rat
Protocol: The effects of an NO donor administered to normal young adult rats on the induction of cell proliferation within three regions of brain, the dentate gyrus, the olfactory bulb (OB) and the subventricular zone (SVZ) were tested. […] Young male Wister rats (3-4 month old) received 4 consecutive). I.V bolus doses of DETA/NONOate (0.1 mg/kg each, every 15 min, and total dose of 0.4 mg/kg) on the first experimental day and DETA/NONOate (0.4 mg/kg) was administered (i.p) daily for an additional 6 consecutive days. Rats that received saline were used as a control group. Bromodeoxyuridine (BrdU) was used as mitotic labeling to measure cell proliferation. Animals received daily i.p injections of BrdU (50 mg/kg, Sigma) on the first experimental day and subsequently for 14 consecutive days. Rats were sacrificed at 14 and 42 days after the treatment. BrdU immunoreactive nuclei were counted on a computer monitor to improve visualization and in one focal plane to avoid over-sampling. Structures were sampled either by selecting predetermined areas on each section (OB) or by analyzing entire structures on each section (SVZ and dentate gyrus) (Zhang et al., 2001). All BrdU immunoreactive-positive nuclei in these areas are presented as the number of the BrdU immunoreactive cells/mm^2. Density for the selected several sections was averaged to obtain a mean density value for each animal (Zhang et al., 2001).

In the case of `CCCc1nn(C)c2c(=O)[nH]c(-c3cc(S(=O)(=O)N4CCN(C)CC4)ccc3OCC)nc12` [Sildenafil], the half-life in rats [1] is given as 24 min, the “numbers of TuJ1-immunoreactive cells in the ipsilateral and contralateral subventricular zones” value ([2]; sildenafil 2 or 5 mg/kg, 28 days after ischemia, vs control rats) is given as “significantly (P=0.05) increased numbers of TuJ1-immunoreactive cells” and the “number of TuJ1 cells in the ipsilateral striatum” value ([2]; sildenafil, vs contralateral hemisphere and ipsilateral striatum of control rats) is given as “significantly increased the number of TuJ1 cells”. The “Adhesive Removal Test” value ([3]; Sildenafil 2 mg/kg, 2 h, 4 d) was 96.4 ± 9.8 s, the “Adhesive Removal Test” value ([3]; Sildenafil 2 mg/kg, 2 h, 7 d) was 41.9 ± 8.4 s and the “Adhesive Removal Test” value ([3]; Sildenafil 2 mg/kg, 2 h, 14 d) was 27.6 ± 3.9 s. The “Adhesive Removal Test” value ([3]; Sildenafil 2 mg/kg, 2 h, 21 d) was 23.6 ± 5.1 s, the “Adhesive Removal Test” value ([3]; Sildenafil 2 mg/kg, 2 h, 28 d) was 15.9 ± 3.8 s and the “Adhesive Removal Test” value ([3]; Sildenafil 2 mg/kg, 2 h group, Before Ischemia (baseline)) was 7.0 ± 0.1 s. For the same compound, the “Adhesive Removal Test” value ([3]; Sildenafil 2 mg/kg, 24 h, 4 d) was 102 ± 6.6 s, the “Adhesive Removal Test” value ([3]; Sildenafil 2 mg/kg, 24 h, 7 d) was 49.4 ± 4.5 s and the “Adhesive Removal Test” value ([3]; Sildenafil 2 mg/kg, 24 h, 14 d) was 14.1 ± 1.3 s. The “Adhesive Removal Test” value ([3]; Sildenafil 2 mg/kg, 24 h, 21 d) was 14.0 ± 1.0 s, the “Adhesive Removal Test” value ([3]; Sildenafil 2 mg/kg, 24 h, 28 d) was 10.7 ± 0.9 s and the “Adhesive Removal Test” value ([3]; Sildenafil 2 mg/kg, 24 h group, Before Ischemia (baseline)) was 6.8 ± 0.3 s. For the same compound, the “Adhesive Removal Test” value ([3]; Sildenafil 5 mg/kg, 2 h, 4 d) was 100.7 ± 9.2 s, the “Adhesive Removal Test” value ([3]; Sildenafil 5 mg/kg, 2 h, 7 d) was 70.7 ± 10.8 s and the “Adhesive Removal Test” value ([3]; Sildenafil 5 mg/kg, 2 h, 14 d) was 38.6 ± 7.9 s. For the same compound, the “Adhesive Removal Test” value ([3]; Sildenafil 5 mg/kg, 2 h, 21 d) was 26.0 ± 6.6 s, the “Adhesive Removal Test” value ([3]; Sildenafil 5 mg/kg, 2 h, 28 d) was 14.8 ± 3.9 s and the “Adhesive Removal Test” value ([3]; Sildenafil 5 mg/kg, 2 h group, Before Ischemia (baseline)) was 16.7 ± 0.4 s.
In the case of `NCCN(CCN)/[N+]([O-])=N/O` [DETANONOate, (Z)-1-[N-(2-aminoethyl)-N-(2-ammonioethyl)aminio]diazen-1-ium-1,2-diolate], the Total tube length [4] is reported as 4.6±0.6 mm/mm^2, the “NSS at 14 days” value [5] is reported as “No significant difference” and the “numbers of BrdU reactive cells within the dentate gyrus, SVZ and OB” value ([6]; non-ischemic young adult rats (3-4 month old), DETA/NONOate 0.4 mg/kg daily 7 days, 14 and 42 days, vs saline) is reported as “Statistically significant increased”. The “newly generated cells within the dentate gyrus exhibiting neuronal markers NeuN and MAP2” value ([6]; non-ischemic young adult rats administered DETA/NONO-ate) was “More than 95%”.
